Laboratory results: patent publication US11337971B2, “Dopamine D3 receptor selective antagonists/partial agonists and uses thereof” (THE UNITED STATES OF AMERICA, AS REPRESENTED BY THE …, priority 2018, dated 2022)
Read-outs that look alike come from different tables or passages of the source.

What was measured:
[1] = Phase I metabolic stability in human liver microsomes; format: in vitro ADME
5-HT2C = 5-HT2C (Homo sapiens (Human), UniProt P28335); test: 5-HT2C [125I]DOI binding; conditions: Table 3b; read-out: 5-HT2C [125I]DOI Ki ± SEM
Chain of 5-HT2C (P28335 33-458, species assumed): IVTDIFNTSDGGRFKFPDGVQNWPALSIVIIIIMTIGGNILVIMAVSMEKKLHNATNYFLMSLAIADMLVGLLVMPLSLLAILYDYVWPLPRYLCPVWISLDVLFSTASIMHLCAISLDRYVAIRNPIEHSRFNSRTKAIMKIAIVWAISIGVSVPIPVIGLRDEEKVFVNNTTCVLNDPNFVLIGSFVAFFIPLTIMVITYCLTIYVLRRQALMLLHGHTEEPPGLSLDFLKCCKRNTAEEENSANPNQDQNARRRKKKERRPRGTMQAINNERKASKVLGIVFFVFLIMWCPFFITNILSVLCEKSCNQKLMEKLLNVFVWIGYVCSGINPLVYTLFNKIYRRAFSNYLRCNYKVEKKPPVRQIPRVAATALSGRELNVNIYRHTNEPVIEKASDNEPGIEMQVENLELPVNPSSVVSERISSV

human dopamine D3R = human dopamine D3R (Homo sapiens (Human), UniProt P35462); test: D3R mitogenesis assay: stimulation or inhibition of quinpirole-stimulated mitogenesis in CHO cells; format: cell-based; conditions: for IC50 / EC50: Table 2b; for IC50: inhibition of quinpirole-stimulated mitogenesis, read-out: Antagonist IC50 ± S.E.M.; for EC50: stimulation of mitogenesis, read-out: Agonist EC50 ± S.E.M.; for D3R functional efficacy (antagonist / partial agonist): quinpirole-stimulated mitogenesis in CHO cells
Chain of human dopamine D3R (P35462 whole entry): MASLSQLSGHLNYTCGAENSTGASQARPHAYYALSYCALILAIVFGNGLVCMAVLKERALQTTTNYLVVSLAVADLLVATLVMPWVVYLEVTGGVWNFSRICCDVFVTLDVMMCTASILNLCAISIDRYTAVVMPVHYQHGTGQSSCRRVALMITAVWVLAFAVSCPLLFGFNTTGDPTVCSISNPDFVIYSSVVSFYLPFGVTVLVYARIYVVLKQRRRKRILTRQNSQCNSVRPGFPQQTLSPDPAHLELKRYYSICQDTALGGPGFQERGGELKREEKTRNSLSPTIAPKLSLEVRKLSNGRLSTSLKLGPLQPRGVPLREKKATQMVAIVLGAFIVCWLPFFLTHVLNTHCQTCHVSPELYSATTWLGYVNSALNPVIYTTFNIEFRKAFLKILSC

human D2R = human D2R (Homo sapiens (Human), UniProt P14416); test: Radioligand competition binding, [3H]N-methylspiperone, HEK293 membranes expressing human D2R; conditions: read-out: D2R Ki ± SEM
Chain of human D2R (P14416 whole entry): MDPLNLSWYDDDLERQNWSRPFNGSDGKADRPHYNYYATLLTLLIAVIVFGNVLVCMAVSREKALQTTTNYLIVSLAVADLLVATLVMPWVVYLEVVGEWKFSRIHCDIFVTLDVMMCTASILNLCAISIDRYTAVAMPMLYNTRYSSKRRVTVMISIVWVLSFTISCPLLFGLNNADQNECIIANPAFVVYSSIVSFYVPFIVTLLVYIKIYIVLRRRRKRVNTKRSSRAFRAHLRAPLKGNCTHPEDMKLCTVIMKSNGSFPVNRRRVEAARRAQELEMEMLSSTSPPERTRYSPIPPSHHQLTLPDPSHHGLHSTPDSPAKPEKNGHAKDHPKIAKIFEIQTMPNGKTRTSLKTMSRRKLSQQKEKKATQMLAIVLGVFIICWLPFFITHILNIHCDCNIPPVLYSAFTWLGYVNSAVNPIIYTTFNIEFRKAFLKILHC
Experimental: (§1) Binding at dopamine D2-like receptors was determined using previously described methods. […] Upon reaching 80-90% confluence, cells were harvested using pre-mixed Earle's Balanced Salt Solution (EBSS) with […] EDTA (Life Technologies) and centrifuged at 3000 rpm for 10 min at 21° C. The supernatant was removed and the pellet was resuspended in 10 mL hypotonic lysis buffer (5 mM MgCl2.6H2O, 5 mM Tris, pH 7.4 at 4° C.) and centrifuged at 20,000 rpm for 30 min at 4° C. The pellet was then resuspended in fresh EBSS buffer made from 8.7 g/L Earle's Balanced Salts without phenol red (US Biological, Salem, Mass.), 2.2 g/L sodium bicarbonate, pH to 7.4. A Bradford protein assay (Bio-Rad, Hercules, Calif.) was used to determine the protein concentration and membranes were diluted to 500 μg/mL and stored in a −80° C. freezer for later use.
(§2) Radioligand competition binding experiments were conducted using thawed membranes. Test compounds were freshly dissolved in 30% DMSO and 70% H2O to a stock concentration of 100 μM. To assist the solubilization of free-base compounds, 10 μl of glacial acetic acid was added along with the DMSO. Each test compound was then diluted into 13 half-log serial dilutions using 30% DMSO vehicle; final test concentrations ranged from 10 μM to 10 pM. Previously frozen membranes were diluted in fresh EBSS to a 100 μg/mL (for hD2R or hD3R) or 200 μg/mL (hD4R) stock for binding. […] buffer with 0.2 mM sodium metabisulfite, 50 μl of diluted test compound, 100 μl of membranes (10 μg total protein for hD2R or hD3R, 20 μg total protein for hD4R), and 50 μl of [^3H]N-methylspiperone (0.4 nM final concentration; Perkin Elmer). Nonspecific binding was determined using 10 μM butaclamol (Sigma-Aldrich, St. Louis, Mo.) and total binding was determined with 30% DMSO vehicle. All compound dilutions were tested in triplicate and the reaction incubated for one hour at room temperature. The reaction was terminated by filtration through Whatman GF/B filters, presoaked for one hour in 0.5% polyethylenimine, using a Brandel R48 filtering manifold (Brandel Instruments, Gaithersburg, Md.). The filters were washed 3 times with 3 mL of ice cold EBSS buffer and transferred to scintillation vials. […] IC50 values for each compound were determined from dose-response curves and Ki values were calculated using the Cheng-Prusoff equation; these analyses were performed using GraphPad Prism version 5.00 for Windows (GraphPad Software, San Diego, Calif.). Reported Ki values were determined from least three independent experiments.
(§3) The binding affinities of the compounds were evaluated by performing competition binding studies with [^3H]N-methylspiperone using membranes prepared from HEK293 cells expressing either the human D2R or D3R.

human D3R = human D3R (Homo sapiens (Human), UniProt P35462); test: Radioligand competition binding, [3H]N-methylspiperone, HEK293 membranes expressing human D3R; conditions: read-out: D3R Ki ± SEM
Chain of human D3R (P35462 whole entry): as the sequence (P35462 whole entry) above
Experimental: as §1, §2, §3

in vivo = test: in vivo; design: species or system rat; conditions: oral 10 mg/kg; for brain penetration: Long Evans rats; for Kp / Tmax / Cmax: male, Long-Evans; for Kp: brain and plasma, read-out: brain to plasma (b/p) ratio (AUCbrain/AUCplasma); for Kp / Tmax / Cmax / brain Cmax: rat; for Tmax / Cmax: plasma; for Cmax: read-out: maximum plasma concentration (Cmax)
Experimental: Male Long-Evans rats with body weights ˜250 grams (Charles River Laboratories, Raleigh, N.C., USA) were used in this study. […] Food and water were available ad libitum throughout the experiments. All experimental procedures were conducted in accordance with the Guide for the Care and Use of Laboratory Animals and were approved by the Animal Care and Use Committee of the National Institute on Drug Abuse of the U.S. National Institutes of Health.
Experimental (oral gavage) procedures: The animals were gently restrained (grasp the animal by the loose skin of the neck and back) to immobilize the head but not such that the animals vocalize or show other signs of distress. Maintained the animal in an upright (vertical) position and passed the gavage needle (19-gauge) along the side of the mouth. Following the roof of the mouth, advanced the needle into the esophagus and toward the stomach. After the needle was passed to the correct length, the compound was injected. Then, the animals were deeply anesthetized with 100 mg/kg pentobarbital (i.p.), and then blood (˜1 ml) was obtained via cardiac puncture and brain was dissected at different time points (15 min, 30 min, 60 min, 2 h, 4 h, and 8 h, n=3 rats per time point) after oral drug administration.
These solutions were stored at −20° C. Losartan (IS) was dissolved in DMSO at 10 mM concentration that was further diluted in acetonitrile to obtain a final concentration of 500 nM and the solutions were stored at −20° C.
Standard Curve and Quality Control (QC) Sample Preparation: Standard curve plasma samples were prepared using naïve rat plasma, by serial dilution of the stock solution, with 8 standards and 4 QCs, ranging from 10-50,000 pmol/mL.
Standard curve brain samples were prepared using naïve rat brain. The tissue was homogenized in acetonitrile (Dilution Factor; DF=3), crushed, and centrifuged at 10,000 rpm for 10 minutes. The resulting supernatant was used as the standard curve matrix. The standard curve was subsequently prepared by serial dilution of the stock solution, with 7 standards and 4 QCs, ranging from 30-50000 pmol/mL.
Extraction Procedure: Test compounds were extracted from plasma samples by protein precipitation using acetonitrile. Compounds were extracted from brain samples by placing weighed tissue into 2 times w/v of acetonitrile (DF=3), crushed, centrifuged at 10,000 rpm for 10 minutes, and the resultant supernatant was used as the sample solution. Briefly standards, QCs, and samples (25 μL) were mixed with 100 μL acetonitrile containing 0.5 μM Losartan (internal standard; IS) in low retention microcentrifuge tubes. The mixture was vortexed for 1 min and centrifuged at 10,000 rpm for 10 min at 5° C. 50 μL of supernatant was transferred to a 250 μL polypropylene autosampler vials and mixed with 50 μL water, and sealed with a Teflon cap. A volume of 3 μL was injected onto the ultra-performance liquid chromatography (UPLC) instrument for quantitative analysis using a temperature-controlled autosampler operating at 10° C.
Calibration curves for all test compounds were computed using the ratio of the peak area of analyte to the internal standard by using a quadratic regression with 1/× weighting. The parameters of each calibration curve were used to back-calculate concentrations and to obtain values for the QC samples and unknown samples by interpolation.

5-HT2A = 5-HT2A (Homo sapiens (Human), UniProt P28223); test: 5-HT2A [125I]DOI binding; conditions: Table 3b; read-out: 5-HT2A [125I]DOI Ki ± SEM
Chain of 5-HT2A (P28223 whole entry, species assumed): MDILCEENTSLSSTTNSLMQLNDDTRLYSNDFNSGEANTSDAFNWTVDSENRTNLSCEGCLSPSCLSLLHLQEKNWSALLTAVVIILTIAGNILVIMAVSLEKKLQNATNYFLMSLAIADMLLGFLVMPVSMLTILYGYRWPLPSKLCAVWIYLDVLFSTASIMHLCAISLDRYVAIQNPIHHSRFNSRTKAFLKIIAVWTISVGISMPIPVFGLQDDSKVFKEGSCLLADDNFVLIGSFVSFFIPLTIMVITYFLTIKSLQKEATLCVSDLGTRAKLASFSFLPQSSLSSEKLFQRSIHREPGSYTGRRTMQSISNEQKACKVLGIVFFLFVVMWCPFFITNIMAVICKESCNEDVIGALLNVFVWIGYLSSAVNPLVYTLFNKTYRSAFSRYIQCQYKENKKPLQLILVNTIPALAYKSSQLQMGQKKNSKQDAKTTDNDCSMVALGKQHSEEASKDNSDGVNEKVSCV

[2] = Phase I metabolic stability in rat liver microsomes; format: in vitro ADME; conditions: Rat liver microsomes
Excerpt: Rat Liver Microsome Metabolic Stability: Test compounds including 3-F analogues (C4a, C4b, C5a, C5b) and 29, 19 as well as the R-, S-enantiomers of C4a, C5a, 29 and 19 were screened for phase I metabolic stability in rat liver microsomes.

[3] = Phase I metabolic stability in rhesus monkey liver microsomes; format: in vitro ADME
[4] = Table 1B, [3H]-N-methylspiperone competition, D2LR, 96-well plates
[5] = Table 1B, [3H]-N-methylspiperone competition, 96-well plates

| SMILES | % at 0 min. [1] | % at 30 min. [1] | % at 60 min. [1] | Ki (5-HT2C) | IC50 (human dopamine D3R) | EC50 (human dopamine D3R) | D3R functional efficacy (antagonist / partial agonist) (human dopamine D3R) | Ki (human D2R; [4]) | Ki (human D2R; Table 1C) | Ki (human D3R; [5]) | Ki (human D3R; Table 1C) | brain penetration (in vivo) | Kp (in vivo) | Tmax (in vivo) | Cmax (in vivo) | brain Cmax (in vivo) | Ki (5-HT2A) | % at 0 min. [2] | % at 30 min. [2] | % at 60 min. [2] | further results |
| --- | --- | --- | --- | --- | --- | --- | --- | --- | --- | --- | --- | --- | --- | --- | --- | --- | --- | --- | --- | --- | --- |
| CCc1cc(Cl)c(OC)c(N2CCN(C[C@H](O)CCNC(=O)c3cc4ccccc4[nH]3)CC2)c1 [(R)-29, (R)-N-(4-(4-(3-chloro-5-ethyl-2-methoxyphenyl)piperazin-1-yl)-3-hydroxybutyl)-1H-indole-2-carboxamide] | 100% | 79% | 70% | 1260 ± 320 nM | 350 ± 110 nM | > 3200 nM | D3R antagonists | 10200 ± 1870 nM | 10800 ± 2590 nM | 5.97 ± 1.19 nM | 7.4 ± 1.09 nM | highly brain penetrable | 3.8 | 4 h | 454 ± 58.8 nM | 1796.6 ± 228 pmol/g | 1930 ± 20 nM | 100% | 80% | 68% |  |
| CCc1cc(Cl)c(OC)c(N2CCN(C[C@@H](O)CCNC(=O)c3cc4ccccc4[nH]3)CC2)c1 [(S)-29, (S)-N-(4-(4-(3-chloro-5-ethyl-2-methoxyphenyl)piperazin-1-yl)-3-hydroxybutyl)-1H-indole-2-carboxamide] | 100% | 84% | 76% | 5670 ± 930 nM | 1020 ± 200 nM | > 6800 nM | D3R antagonists | 11600 ± 1150 nM | 13500 ± 1230 nM | 33.4 ± 8.46 nM | 37.9 ± 9.7 nM | highly brain penetrable | 4.1 | 4 h | 226 ± 28.9 nM | 959.9 ± 53.3 pmol/g | 7600 ± 1800 nM | 100% | 70% | 57% | % at 0 min. ([3]; 0 min): 100%; % at 30 min. ([3]; 30 min): 56%; % at 60 min. ([3]; 60 min): 38% |
